Experimental data: ChEMBL document CHEMBL1201862, “PubChem BioAssay data set” (2004)
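Five compound concentrations were applied to cells in 96-well plates for 48 hours; endpoints were derived by simple linear interpolation of the resulting dose-response curve. GI50: concentration for 50% inhibition of growth.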 The source made the active and inactive calls. No stated cut-off is given here; in the data, active = GI50 up to about 1.1 µM and inactive = higher.

How the values were obtained:
Assay in all cases: growth of human tumour cells (NCI), 48 h
[1] = tested on: 786-0
[2] = tested on: A498
[3] = tested on: A549
[4] = tested on: ACHN
[5] = tested on: CCRF-CEM
[6] = tested on: COLO 205
[7] = tested on: HCT-116
[8] = tested on: HCT-15
[9] = tested on: MDA-MB-435
[10] = tested on: OVCAR-8
[11] = tested on: SF-268
[12] = tested on: SF-295
[13] = tested on: SK-MEL-28
[14] = tested on: SK-MEL-5
[15] = tested on: SK-OV-3
[16] = tested on: SN12C
[17] = tested on: SNB-75
[18] = tested on: SR
[19] = tested on: UACC-62
[20] = tested on: BT-549

Row | Compound | GI50 [1] | GI50 [2] | GI50 [3] | GI50 [4] | GI50 [5] | GI50 [6] | GI50 [7] | GI50 [8] | GI50 [9] | GI50 [10] | GI50 [11] | GI50 [12] | GI50 [13] | GI50 [14] | GI50 [15] | GI50 [16] | GI50 [17] | GI50 [18] | GI50 [19] | GI50 [20]
1 | CC(C)S(=O)(=O)ON1C(=O)c2ccc(N(C)C)cc2C1=O | 4.66 µM (inactive) | > 43.7 µM (inactive) | 25 µM (inactive) | 15.6 µM (inactive) | 0.918 µM (active) | 2.86 µM (inactive) | 14.8 µM (inactive) | 13.6 µM | 2.04 µM (inactive) | 2.65 µM (inactive) | 24 µM (inactive) | 30.9 µM (inactive) | 21.4 µM (inactive) | 3.96 µM (inactive) | > 50.7 µM (inactive) | 16.9 µM (inactive) | 19.6 µM (inactive) | 2.38 µM (inactive) | 15.5 µM (inactive) | 
2 | CN1CCCC(OC(=O)c2cc3cc(CCl)ccc3oc2=O)C1 (stereo not given) | 23.8 µM (inactive) |  | 29.8 µM (inactive) | 23.3 µM (inactive) | 19.1 µM (inactive) | 17.2 µM (inactive) | 19.2 µM (inactive) | 19.2 µM | 18.9 µM (inactive) | 28.8 µM (inactive) | 21.7 µM (inactive) | 25.2 µM (inactive) | 19.5 µM (inactive) | 17.3 µM (inactive) | 35.2 µM (inactive) | 20.9 µM (inactive) | 22.2 µM (inactive) | 21.9 µM (inactive) | 17.3 µM (inactive) | 21 µM (inactive)
3 | COC(=O)CSC1CC(=O)c2c(Cl)sc(Cl)c21 (stereo not given) | > 100 µM (inactive) |  | > 100 µM (inactive) | > 100 µM (inactive) | > 100 µM (inactive) | > 100 µM (inactive) | > 100 µM (inactive) | > 100 µM | > 100 µM (inactive) | > 100 µM (inactive) | > 100 µM (inactive) | > 100 µM (inactive) | > 100 µM (inactive) | > 100 µM (inactive) | > 100 µM (inactive) | > 100 µM (inactive) | > 100 µM (inactive) | 66.2 µM (inactive) | > 100 µM (inactive) | > 100 µM (inactive)
4 | O=c1[nH]nc(-c2ccccc2)n1/N=C/c1c(O)ccc2ccccc12 | 31.3 µM (inactive) |  | 24.9 µM (inactive) | 26.3 µM (inactive) | > 100 µM (inactive) | 31.8 µM (inactive) | 30 µM (inactive) | 42.6 µM | 56.5 µM (inactive) | 48.6 µM (inactive) | 32.7 µM (inactive) | 29 µM (inactive) | 75.7 µM (inactive) | 30.2 µM (inactive) | 28.2 µM (inactive) | 45.3 µM (inactive) | 31.7 µM (inactive) | 72.6 µM (inactive) | 54.8 µM (inactive) | 45.7 µM (inactive)
5 | C/C=C1\CC2C(=O)CCC2C2c3ccccc3OC12 (stereo not given) | > 100 µM (inactive) |  | > 100 µM (inactive) | > 100 µM (inactive) | > 100 µM (inactive) | > 100 µM (inactive) | > 100 µM (inactive) | > 100 µM | > 100 µM (inactive) | > 100 µM (inactive) | > 100 µM (inactive) | > 100 µM (inactive) | > 100 µM (inactive) | > 100 µM (inactive) | > 100 µM (inactive) | < 0.01 µM (active) | > 100 µM (inactive) | > 100 µM (inactive) | > 100 µM (inactive) | 
6 | [N-]=[N+]=C(C(=O)N1CCCC1=O)S(=O)(=O)c1ccccc1 | 97.9 µM (inactive) |  | > 100 µM (inactive) | > 100 µM (inactive) | 80.7 µM (inactive) | > 100 µM (inactive) | 80.4 µM (inactive) | 51.9 µM | 77.8 µM (inactive) | > 100 µM (inactive) | > 100 µM (inactive) | > 100 µM (inactive) | 48.5 µM (inactive) | 98.9 µM (inactive) |  | > 100 µM (inactive) | 87.7 µM (inactive) | 87.7 µM (inactive) | 70.6 µM (inactive) | > 100 µM (inactive)
7 | CCCCCC(=O)OC[n+]1ccc2c(C)c3[nH]c4ccc(OC)cc4c3c(C)c2c1 | 0.0843 µM (active) | 1.07 µM (active) | 0.284 µM (active) | 0.106 µM (active) | 0.0805 µM (active) | 0.251 µM (active) | 0.0482 µM (active) | 0.169 µM | 0.499 µM (active) | 0.112 µM (active) | 0.211 µM (active) | 0.395 µM (active) | 0.766 µM (active) | 1.57 µM (inactive) | 0.628 µM (active) | 0.117 µM (active) | 1.11 µM (active) | 0.0498 µM (active) | 0.966 µM (active) | 
8 | C1CC[C@H]2SSC3CCCC[C@H]3SSC2C1 (stereo not given in full) | > 100 µM (inactive) |  | > 100 µM (inactive) |  | > 100 µM (inactive) | > 100 µM (inactive) | > 100 µM (inactive) | > 100 µM | > 100 µM (inactive) | > 100 µM (inactive) | > 100 µM (inactive) | > 100 µM (inactive) | > 100 µM (inactive) | > 100 µM (inactive) | > 100 µM (inactive) | > 100 µM (inactive) | > 100 µM (inactive) | > 100 µM (inactive) | > 100 µM (inactive) | > 100 µM (inactive)
9 | CN(CCCNCc1ccccn1)Cc1ccccc1O | 52.7 µM (inactive) | > 100 µM (inactive) | 37.1 µM (inactive) | 13.9 µM (inactive) | 50.8 µM (inactive) | 29 µM (inactive) | 60.4 µM (inactive) | 6.4 µM | 44.4 µM (inactive) | 26.8 µM (inactive) | 57.9 µM (inactive) | 20.4 µM (inactive) | > 100 µM (inactive) | 21 µM (inactive) | 45.2 µM (inactive) | 71.1 µM (inactive) | > 100 µM (inactive) |  | 18.7 µM (inactive) | 
10 | CCOC(=O)Cc1csc2[n+]1C(=O)/C(=C\c1cccc(Cl)c1Cl)S2 | 15.8 µM (inactive) |  | 14.8 µM (inactive) | 17.9 µM (inactive) | 12.7 µM (inactive) | 1.7 µM (inactive) | 12.7 µM (inactive) | 16.2 µM | 13.7 µM (inactive) | 19.5 µM (inactive) | 29.2 µM (inactive) | 15.3 µM (inactive) | 19.5 µM (inactive) | 8.93 µM (inactive) | 17.3 µM (inactive) | 16.2 µM (inactive) | 23.8 µM (inactive) |  | 4.94 µM (inactive) | 17.6 µM (inactive)
11 | COc1cc2nc(Nc3cccc(Br)c3)nc(Nc3cccc(Br)c3)c2cc1OC | 17.3 µM (inactive) |  | 17.3 µM (inactive) | 16 µM (inactive) | 22.2 µM (inactive) | 13.9 µM (inactive) | 17.6 µM (inactive) | 17.7 µM | 19.7 µM (inactive) | 16.6 µM (inactive) | 16.2 µM (inactive) | 17.7 µM (inactive) | 17.2 µM (inactive) | 17 µM (inactive) | 19.2 µM (inactive) | 16.4 µM (inactive) | 17.3 µM (inactive) |  | 18.8 µM (inactive) | 17 µM (inactive)
12 | CCCCOC(=O)C(=O)C(CC(CC)C(=O)c1ccccc1)C(=O)C=C(C)C (stereo not given) | > 100 µM (inactive) |  | > 100 µM (inactive) | > 100 µM (inactive) | > 100 µM (inactive) | > 100 µM (inactive) | > 100 µM (inactive) | > 100 µM | > 100 µM (inactive) | > 100 µM (inactive) | > 100 µM (inactive) | > 100 µM (inactive) | > 100 µM (inactive) | > 100 µM (inactive) | > 100 µM (inactive) | > 100 µM (inactive) | > 100 µM (inactive) |  | > 100 µM (inactive) | > 100 µM (inactive)
13 | CN(CC(=O)O)c1ncc2c(n1)-c1ccccc1SC2 | > 100 µM (inactive) | > 100 µM (inactive) | > 100 µM (inactive) | > 100 µM (inactive) | > 100 µM (inactive) | > 100 µM (inactive) | > 100 µM (inactive) | > 100 µM | > 100 µM (inactive) | > 100 µM (inactive) | > 100 µM (inactive) | > 100 µM (inactive) | > 100 µM (inactive) | > 100 µM (inactive) |  | > 100 µM (inactive) | > 100 µM (inactive) | 92.3 µM (inactive) | > 100 µM (inactive) | 
14 | COc1ccc(-c2cc(-c3cc4cc(Br)ccc4nc3Cl)c(C#N)c(N)n2)cc1 | > 12.5 µM (inactive) |  | > 12.5 µM (inactive) |  | > 12.5 µM (inactive) | > 12.5 µM (inactive) | > 12.5 µM (inactive) | > 12.5 µM | > 12.5 µM (inactive) | > 12.5 µM (inactive) | > 12.5 µM (inactive) | > 12.5 µM (inactive) | > 12.5 µM (inactive) | > 12.5 µM (inactive) | > 12.5 µM (inactive) | > 12.5 µM (inactive) | > 12.5 µM (inactive) | 4.28 µM (inactive) |  | > 12.5 µM (inactive)
15 | COc1ccc(N2C(=O)C3c4[nH]c5ccccc5c4C4CCC(C(C)(C)C)CC4C3C2=O)c(C)c1 (stereo not given) | > 100 µM (inactive) |  | > 100 µM (inactive) | > 100 µM (inactive) | > 100 µM (inactive) | > 100 µM (inactive) | > 100 µM (inactive) | > 100 µM | > 100 µM (inactive) | > 100 µM (inactive) | > 100 µM (inactive) | > 100 µM (inactive) | > 100 µM (inactive) | > 100 µM (inactive) | > 100 µM (inactive) | > 100 µM (inactive) | > 100 µM (inactive) | > 100 µM (inactive) | > 100 µM (inactive) | > 100 µM (inactive)
